Like-named read-outs stand apart in the source and are kept apart here.
Experiments:
[1] = Acute toxicity (DL50) in the mouse; assay type: in vivo; details: iv (Table 1); for LD50: in vivo, read-out: DL50 value
Description: *1 DL50 in the mouse mg/kg iv.
Examples of differences between toxicity (DL50 in
the mouse) by intravenous administration and oral
administration in mg/kg. Variation in therapeutic

gastric secretion [2] = experiment: Anti-secretive activity in the rat with lig. pylorus, iv; assay type: in vivo
gastric secretion [3] = experiment: Anti-secretive activity in the rat by gastric stimulus, oral; assay type: in vivo; details: oral (Table 1); for ED50: read-out: Activity B: anti-secretive activity ED50
Method: *3 Anti-secretive activity in the rat by gastric stimulus, ED50 mg/k

[4] = tested on: transit through the stomach and intestine; experiment: Anti-spastic activity, vegetable carbon (charcoal) test, rate of transit through the stomach and intestine; assay type: in vivo, mice; details: for ED50: Mus musculus, 2 h; for Ratio 3/2: anti-secretive ED50 / anti-spastic ED50 (Table 3)
Method: Particularly marked is the anti-spastic activity which the present compounds exercise on the entire digestive system. Measured in the mouse, using the vegetable carbon test (rate of transit through the stomach and intestine), this activity is in some cases comparatively greater than the anti-secretive activity (Table 3).
(*)The antispastic activity is measured in mice of an average weight of […]
± 3 g by administering a suspension of charcoal in gum arabic and
checking after two hours whether the charcoal has reached the initial
portion of the colon. In non-treated subjects the charcoal reaches this
transit of the charcoal. Evaluation of the results is effected as
ED50 in mg/kg body weight of the animal, i.e., the dose at which the […]

gastric secretion [5] = experiment: Comparison of antisecretive activity, rats with tied pylorus, oral aqueous suspension; assay type: in vivo; details: Rattus norvegicus, po, oral, read-out: Antisecretive activity (dose which reduces the gastric secretion by 50%)
Method: (*)The antisecretive activity is defined as the dose in mg/kg of body
weight of the animal, which reduces the gastric secretion by 50%. The
evaluation is effected by considering the decrease in quantity of secrete
gastric juice as compared with controls. Rats of an average weight of 200
± 20 grams are employed of which the lower part of the stomach at the
level of the pylorus is tied to collect the gastric juice during the
indicated periods. The preparations are administered orally in the form o

[6] = tested on: gastric lesions from Indomethacin; experiment: Protective activity against gastric lesions due to Indomethacin; assay type: in vivo, rats; details: Rattus norvegicus, po, 4 h, oral; Indomethacin 16 mg/kg orally; read-out: Protective activity ED50
Method: The activity is defined as the dose in mg/kg of body weight to the animal, which prevents in 50% of the treated subjects arising of lesions due to Indomenthacin.
The protective preparations are administered orally in aqueous suspension.

[7] = rat with lig. pylorus, iv (Table 1), read-out: Activity A: anti-secretive activity ED50
[8] = po, charcoal after two hours, orally (later Table 3), read-out: Antispastic activity ED50
[9] = Rattus norvegicus, iv, compared with anti-spastic activity (Table 3), read-out: Anti-secretive activity ED50
[10] = mouse, vegetable carbon test (Table 3), read-out: Anti-spastic activity ED50
[11] = Rattus norvegicus, iv, read-out: Activity A: anti-secretive activity ED50
[12] = rat with lig. pylorus, iv (Table 1)

Compound	LD50 ([1]; iv) [mg/kg]	ED50 (gastric secretion [2]; [7]) [mg/kg]	ED50 (gastric secretion [3]) [mg/kg]	LD50 [1] [mg/kg]	ED50 (gastric secretion [2]; [9]) [mg/kg]	ED50 [4, 10] [mg/kg]	Ratio 3/2 [4]	ED50 (gastric secretion [2]; [11]) [mg/kg]	further results
O=C(N[C@@H](Cc1c[nH]c2ccccc12)C(=O)O)OCc1ccc([N+](=O)[O-])cc1 [Ex.12 (CR438), N-p-nitro-carbobenzoxy-L-tryptophane]	700	267	195	–	–	–	–	–	ED50 [4, 8]: 870 mg/kg; ED50 (gastric secretion [5]; 2.5 h, 2.5 hrs): 475 mg/kg; ED50 (gastric secretion [5]; 5 h, 5 hrs): 560 mg/kg; ED50 (gastric secretion [5]; 10 h, 10 hrs): 980 mg/kg; ED50 (gastric secretion [5]; 15 h, 15 hrs): > 1500 mg/kg; ED50 [6]: 990 mg/kg
Nc1ccc(C(=O)N[C@@H](Cc2c[nH]c3ccccc23)C(=O)O)cc1 [Ex.28 (CR504), N-p-amino-benzoyl-L-tryptophane]	–	960	205	1670	–	–	–	–	ED50 [4, 8]: > 1000 mg/kg; ED50 (gastric secretion [5]; 2.5 h, 2.5 hrs): 1080 mg/kg; ED50 (gastric secretion [5]; 5 h, 5 hrs): 1090 mg/kg; ED50 (gastric secretion [5]; 10 h, 10 hrs): 1490 mg/kg; ED50 (gastric secretion [5]; 15 h, 15 hrs): > 2000 mg/kg; ED50 [6]: > 1500 mg/kg
O=C(O)Cc1ccc(NC(=O)[C@H](Cc2c[nH]c3ccccc23)NC(=O)c2ccccc2)cc1 [Ex.41 (CR421), N-benzoyl-L-tryptophyl-p-aminophenylacetic acid]	–	322	186	1000	322	170	2.0	–	–
O=C(N[C@@H](Cc1c[nH]c2ccccc12)C(=O)O)c1ccccc1Cl [Ex.50 (CR617), N-o-chlorobenzoyl-L-tryptophane]	–	299	255	1270	299	300	1	–	–
O=C(N[C@@H](Cc1c[nH]c2ccccc12)C(=O)O)OCc1ccccc1Cl [Ex. 3 (CR460), N-o-chloro-carbobenzoxy-L-tryptophane]	640	118	267	–	118	58	2.0	–	–
O=C(N[C@H](Cc1c[nH]c2ccccc12)C(=O)O)OCc1ccc(Cl)cc1 [Ex. 5 (CR630), N-p-chloro-carbobenzoxy-D-tryptophane]	260	–	107	–	–	–	–	142	–
O=C(N[C@@H](Cc1c[nH]c2ccccc12)C(=O)O)OCc1ccc(I)cc1 [Ex. 7 (CR490), N-p-iodo-carbobenzoxy-L-tryptophane]	166	–	94	–	–	–	–	75	–
N#Cc1ccc(COC(=O)N[C@@H](Cc2c[nH]c3ccccc23)C(=O)O)cc1 [Ex. 8 (CR496), N-p-cyano-carbobenzoxy-L-tryptophane]	1070	–	340	–	–	–	–	202	–
N-p-bromobenzoyl-L-tryptophyl-phenylacetic acid [Ex.45 (CR511)]	–	–	–	–	–	–	–	–	DL50 value [1]: 690 mg/kg; Activity A: anti-secretive activity ED50 (gastric secretion [2]; [12]): 246 mg/kg; Activity B: anti-secretive activity ED50 (gastric secretion [3]): 281 mg/k
N-p-chlorobenzoyl-L-tryptophyl-phenylacetic acid [Ex.46 (CR589)]	–	–	–	–	–	–	–	–	DL50 value [1]: 295 mg/kg; Activity A: anti-secretive activity ED50 (gastric secretion [2]; [12]): 189 mg/kg; Activity B: anti-secretive activity ED50 (gastric secretion [3]): 120 mg/k

— patent publication US4000297A, “N-p-chlorobenzoyl tryptophane, salts and compositions thereof” (priority 1971, dated 1976)
